The record followed here is US20240199613A1 (TAKEDA PHARMACEUTICAL COMPANY LIMITED, priority 2021, published 2024).

Molecules are shown by their SMILES.

For the experiment, the target named is human activated kallikrein enzyme (Homo sapiens, UniProt P03952). Description: Inhibition of activated plasma kallikrein, fluorogenic peptide substrate (PFR-AMC) assay, 500 pM enzyme format. Type of experiment: biochemical. Conditions: 500 pM activated kallikrein, 300 uM PFR-AMC, 30 min preincubation, 10 min reaction, room temperature; read-out: Primary Dose Response Assay: Average EC50. As to the method: Compounds were evaluated for inhibition of the human activated kallikrein enzyme in two formats of an assay employing a fluorogenic peptide substrate. In one assay format, the concentrations of reagents were as follows: 20 mM Tris pH 7.5, 1 mM EDTA, 150 mM sodium chloride, 0.1% PEG-400, 0.1% Triton X-100, 500 pM activated kallikrein enzyme, 300 uM Pro-Phe-Arg-7-amido-4-methylcoumarin (PFR-AMC) substrate. Prior to reaction initiation with substrate, enzyme and inhibitors were preincubated for 30 min at room temperature. After initiation with substrate, reactions were incubated for 10 min at room temperature and fluorescence emission at 460 nm from 380 nm excitation measured with a microplate reader. In another assay format, the concentrations of reagents were as follows: 20 mM Tris pH 7.5, 1 mM EDTA, 150 mM sodium chloride, 0.1% PEG-400, 0.1% Triton X-100, 5 pM activated kallikrein enzyme, 300 uM PFR-AMC substrate. Prior to reaction initiation with substrate, enzyme and inhibitors were preincubated for 30 min at room temperature. After initiation with substrate, reactions were incubated for 18 hr at room temperature and fluorescence emission at 460 nm from 380 nm excitation measured with a microplate reader.
Chain of human activated kallikrein enzyme (P03952 391-638 limits assumed): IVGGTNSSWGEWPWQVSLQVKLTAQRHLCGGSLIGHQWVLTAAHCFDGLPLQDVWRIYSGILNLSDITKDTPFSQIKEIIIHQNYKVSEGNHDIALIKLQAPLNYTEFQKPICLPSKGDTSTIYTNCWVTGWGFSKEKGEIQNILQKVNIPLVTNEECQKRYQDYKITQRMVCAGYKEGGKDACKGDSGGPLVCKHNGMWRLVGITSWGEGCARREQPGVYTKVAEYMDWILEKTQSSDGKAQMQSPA
Chain of human activated kallikrein enzyme (P03952 20-390 partner limits assumed): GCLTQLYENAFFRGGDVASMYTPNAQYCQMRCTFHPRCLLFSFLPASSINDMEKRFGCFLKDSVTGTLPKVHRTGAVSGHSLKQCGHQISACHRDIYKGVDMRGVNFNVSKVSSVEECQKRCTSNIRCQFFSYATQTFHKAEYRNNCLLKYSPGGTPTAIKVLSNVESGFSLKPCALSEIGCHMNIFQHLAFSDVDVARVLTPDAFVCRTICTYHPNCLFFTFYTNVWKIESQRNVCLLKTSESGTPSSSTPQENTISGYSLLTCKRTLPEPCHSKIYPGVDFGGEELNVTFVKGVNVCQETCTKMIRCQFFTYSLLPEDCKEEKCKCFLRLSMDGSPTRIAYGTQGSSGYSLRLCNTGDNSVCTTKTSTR
Table 6 provides the results of the assay in the format with 500 pM activated kallikrein assay.
What is called EC50 is the concentration that produces a half-maximal response. Turning to `COc1cc([C@H]2C[C@@H]2c2cccc(Cl)c2)nc2cc(NCc3cn4cc(C5CC5)cc(N5CCCC5=O)c4n3)ccc12` (racemic) [Example 4, rac-1-(2-(((2-((7S*,2S*)-2-(3-chlorophenyl)cyclopropyl)-4-methoxyquinolin-7-yl)amino)methyl)-6-cyclopropylimidazo[1,2-a]pyridin-8-yl)pyrrolidin-2-one], the EC50 is 10 to 100 nM.
The same measure for `Cc1ccnc([C@H]2C[C@@H]2c2ccc3ncc(NCc4cn5cc(C6CC6)cc(N6CC(=O)N(C)C6=O)c5n4)cc3c2)n1` (racemic) [Example 16, rac-1-(6-Cyclopropyl-2-(((6-((1S*,2S*)-2-(4-methylpyrimidin-2-yl)cyclopropyl)quinolin-3-yl)amino)methyl)imidazo[1,2-a]pyridin-8-yl)-3-methylimidazolidine-2,4-dione]: 100 to 6500 nM.
The same measure for `Cc1ccnc([C@H]2C[C@@H]2c2ccc3ncc(N(C)Cc4cn5cc(C6CC6)cc(N6CC(=O)N(C)C6=O)c5n4)cc3c2)n1` (racemic) [Example 17, rac-1-(6-Cyclopropyl-2-((methyl(6-((1S*,2S*)-2-(4-methylpyrimidin-2-yl)cyclopropyl)quinolin-3-yl)amino)methyl)imidazo[1,2-a]pyridin-8-yl)-3-methylimidazolidine-2,4-dione]: 100 to 6500 nM.
On to `Cc1ccnc([C@H]2C[C@@H]2c2ccc3ccc(NCc4cn5cc(C6CC6)ccc5n4)cc3n2)n1` (racemic) [Example 19, rac-N-((6-cyclopropylimidazo[1,2-a]pyridin-2-yl)methyl)-2-((1S*,2S*)-2-(4-methylpyrimidin-2-yl)cyclopropyl)quinolin-7-amine], for which the EC50 lay in the range of 1 to 10 nM.
Consider `Cc1ccnc([C@H]2C[C@@H]2c2cnc3ccc(NCc4cn5cc(C6CC6)cc(N6CC(=O)N(C)C6=O)c5n4)cc3c2)n1` (racemic) [Example 24, rac-1-(6-cyclopropyl-2-(((3-((1S*,2S*)-2-(4-methylpyrimidin-2-yl)cyclopropyl)quinolin-6-yl)amino)methyl)imidazo[1,2-a]pyridin-8-yl)-3-methylimidazolidine-2,4-dione], for which the EC50 lay within 100 to 6500 nM.
The same measure for `COc1cc([C@H]2C[C@@H]2c2cccc(Cl)c2)nc2cc(N(Cc3cn4cc(C5CC5)ccc4n3)C(=O)OC(C)(C)C)ccc12` (racemic) [Example 47, rac-tert-butyl (2-((1S*,2S*)-2-(3-chlorophenyl)cyclopropyl)-4-methoxyquinolin-7-yl)((6-cyclopropylimidazo[1,2-a]pyridin-2-yl)methyl)carbamate]: more than 6500 nM; for `COc1cc([C@H]2C[C@@H]2c2cccc(Cl)c2)nc2cc(NCc3cn4cc(C5CC5)ccc4n3)ccc12` (racemic) [Example 48, rac-2-((1S*,2S*)-2-(3-chlorophenyl)cyclopropyl)-N-((6-cyclopropylimidazo[1,2-a]pyridin-2-yl)methyl)-4-methoxyquinolin-7-amine]: 10 to 100 nM.
The same measure for `O=c1cc(C2C[C@@H]2c2cccc(Cl)c2)[nH]c2cc(NCc3cn4cc(C5CC5)ccc4n3)ccc12` (mixture of isomers) [Example 49, rac-2-((1S*,2S*)-2-(3-chlorophenyl)cyclopropyl)-7-(((6-cyclopropylimidazo[1,2-a]pyridin-2-yl)methyl)amino)quinolin-4 (1H)-one]: 1 to 10 nM.
The same measure for `Cc1ccnc([C@H]2C[C@@H]2c2cnc3ccc(NCc4cn5cc(C6CC6)cc(N6CC(=O)N(C)C6=O)c5n4)cc3n2)n1` (racemic) [Example 62, rac-1-(6-cyclopropyl-2-(((3-((1S*,2S*)-2-(4-methylpyrimidin-2-yl)cyclopropyl)quinoxalin-6-yl)amino)methyl)imidazo[1,2-a]pyridin-8-yl)-3-methylimidazolidine-2,4-dione]: 100 to 6500 nM; for `Cc1ccnc([C@H]2C[C@@H]2c2ncc3cnc(NCc4cn5cc(C6CC6)cc(N6CC(=O)N(C)C6=O)c5n4)cc3n2)n1` (racemic) [Example 63, rac-1-(6-cyclopropyl-2-(((2-((1S*,2S*)-2-(4-methylpyrimidin-2-yl)cyclopropyl)pyrido[4,3-d]pyrimidin-7-yl)amino)methyl)imidazo[1,2-a]pyridin-8-yl)-3-methylimidazolidine-2,4-dione]: 100 to 6500 nM.
As to `Cc1ccnc([C@H]2C[C@@H]2c2ccc3cccc(NCc4cn5cc(C6CC6)cc(N6CC(=O)N(C)C6=O)c5n4)c3n2)n1` (racemic) [Example 70, rac-1-(6-cyclopropyl-2-(((2-((1S*,2S*)-2-(4-methylpyrimidin-2-yl)cyclopropyl)quinolin-8-yl)amino)methyl)imidazo[1,2-a]pyridin-8-yl)-3-methylimidazolidine-2,4-dione], the EC50 is more than 6500 nM.
The same measure for `Cc1ccnc([C@H]2C[C@@H]2c2ccc3ncn(Cc4cn5cc(C6CC6)cc(N6CC(=O)N(C)C6=O)c5n4)c3n2)n1` (racemic) [Example 71, rac-1-(6-cyclopropyl-2-((5-((1S*,2S*)-2-(4-methylpyrimidin-2-yl)cyclopropyl)-3H-imidazo[4,5-b]pyridin-3-yl)methyl)imidazo[1,2-a]pyridin-8-yl)-3-methylimidazolidine-2,4-dione]: more than 6500 nM; for `Cc1ccnc([C@H]2C[C@@H]2c2ccc3c(ncn3Cc3cn4cc(C5CC5)cc(N5CC(=O)N(C)C5=O)c4n3)n2)n1` (racemic) [Example 72, rac-1-(6-cyclopropyl-2-((5-((1S*,2S*)-2-(4-methylpyrimidin-2-yl)cyclopropyl)-1H-imidazo[4,5-b]pyridin-1-yl)methyl)imidazo[1,2-a]pyridin-8-yl)-3-methylimidazolidine-2,4-dione]: 100 to 6500 nM.
The same measure for `Cc1ccnc([C@H]2C[C@@H]2c2cc(C#N)c3ccc(NCc4cn5cc(C6CC6)cc(N6CC(=O)N(C)C6=O)c5n4)cc3n2)n1` (racemic) [Example 73, rac-7-(((6-cyclopropyl-8-(3-methyl-2,4-dioxoimidazolidin-1-yl)imidazo[1,2-a]pyridin-2-yl)methyl)amino)-2-((1S*,2S*)-2-(4-methylpyrimidin-2-yl)cyclopropyl)quinoline-4-carbonitrile]: 10 to 100 nM.
The same measure for `COCc1cc([C@H]2C[C@@H]2c2nccc(C)n2)nc2cc(NCc3cn4cc(C5CC5)cc(N5CC(=O)N(C)C5=O)c4n3)ccc12` (racemic) [Example 76, rac-1-(6-cyclopropyl-2-(((4-(methoxymethyl)-2-((1S*,2S*)-2-(4-methylpyrimidin-2-yl)cyclopropyl)quinolin-7-yl)amino)methyl)imidazo[1,2-a]pyridin-8-yl)-3-methylimidazolidine-2,4-dione]: not above 1 nM; for `CN1C(=O)CN(c2cc(C3CC3)cn3cc(CNc4ccc5ccc([C@H]6C[C@@H]6c6cc(Cl)ccc6C#N)nc5c4)nc23)C1=O` (racemic) [Example 83, rac-4-chloro-2-((1S*,2S*)-2-(7-(((6-cyclopropyl-8-(3-methyl-2,4-dioxoimidazolidin-1-yl)imidazo[1,2-a]pyridin-2-yl)methyl)amino)quinolin-2-yl)cyclopropyl)benzonitrile]: 1 to 10 nM; for `COc1cc(OCc2cn3cc(C4CC4)cc(N4CC(=O)N(C)C4=O)c3n2)cc2nc([C@H]3C[C@@H]3c3nccc(C)n3)ccc12` (racemic) [Example 102, rac-1-(6-cyclopropyl-2-(((5-methoxy-2-((1S*,2S*)-2-(4-methylpyrimidin-2-yl)cyclopropyl)quinolin-7-yl)oxy)methyl)imidazo[1,2-a]pyridin-8-yl)-3-methylimidazolidine-2,4-dione]: 10 to 100 nM.
As to `Cc1ccnc([C@H]2C[C@@H]2c2nc3cc(NCc4cn5cc(C6CC6)ccc5n4)ccc3c(=O)[nH]2)n1` (relative stereo) [Example 3], the EC50 lay in the range of 1 to 10 nM.
The same measure for `COc1cc([C@H]2C[C@@H]2c2nccc(C)n2)nc2cc(N3C[C@@H](O)C[C@@H]3c3cn4cc(C5CC5)ccc4n3)ccc12` (relative stereo) [Example 53, (3S,5R)-5-(6-cyclopropylimidazo[1,2-a]pyridin-2-yl)-1-(4-methoxy-2-(rac-(1S*,2S*)-2-(4-methylpyrimidin-2-yl)cyclopropyl)quinolin-7-yl)pyrrolidin-3-ol]: 1 to 10 nM; for `O[C@H]1C[C@H](c2cn3cc(C4CC4)ccc3n2)N(c2cc3[nH]c([C@H]4C[C@@H]4c4cccc(Cl)c4)c(F)c3cn2)C1` (relative stereo) [Example 56, rac-(3S,5R)-1-(2-((1S*,2S*)-2-(3-chlorophenyl)cyclopropyl)-3-fluoro-1H-pyrrolo[3,2-c]pyridin-6-yl)-5-(6-cyclopropylimidazo[1,2-a]pyridin-2-yl)pyrrolidin-3-ol]: more than 6500 nM; for `Cc1ccnc([C@H]2C[C@@H]2c2ccc3ccc(NCc4cn5cc(C6CC6)cc(N6C(=O)N(C)C(=O)C6C6(O)COC6)c5n4)cc3n2)n1` (relative stereo) [Example 90, rac-1-(6-cyclopropyl-2-(((2-((1S*,2S*)-2-(4-methylpyrimidin-2-yl)cyclopropyl)quinolin-7-yl)amino)methyl)imidazo[1,2-a]pyridin-8-yl)-5-(3-hydroxyoxetan-3-yl)-3-methylimidazolidine-2,4-dione]: 1 to 10 nM.
Take `Cc1ccnc([C@@H]2C[C@H]2c2ccc3ccc(NCc4cn5cc(C6CC6)cc(N6CC(=O)N(C)C6=O)c5n4)cc3n2)n1` (single isomer, unassigned) [Example 58]: the EC50 was 10 to 100 nM.
